In ChEMBL document CHEMBL4177763, “Development of Macrocyclic Peptidomimetics Containing Constrained α,α-Dialkylated Amino Acids with Potent and Selective Activity at Human Melanocortin Receptors” (J Med Chem, 2018):
Calls of active or inactive are those of the source. The calls are words filed in the database; no cut-off is given here. Bridge positions count the residues as written; N and C are the ends. Square brackets hold non-standard residues; d marks the D form. Peptide text beside a SMILES is read from it. d2Nal = N[C@H](Cc1ccc2ccccc2c1)C(=O)O; Ac6c = NC1(C(=O)O)CCCCC1; Ac5c = NC1(C(=O)O)CCCC1; Ac4c = NC1(C(=O)O)CCC1; Aib = CC(C)(N)C(=O)O

Key:
[1] = biological target: T1, Melanocortin receptor 5 (Homo sapiens, UniProt P33032); assay: Agonist activity at human MC5R expressed in HEK293 cells assessed as induction of intracellular cAMP accumulation after 3 mins; format: functional, cell-based
T1 sequence (P33032 whole entry): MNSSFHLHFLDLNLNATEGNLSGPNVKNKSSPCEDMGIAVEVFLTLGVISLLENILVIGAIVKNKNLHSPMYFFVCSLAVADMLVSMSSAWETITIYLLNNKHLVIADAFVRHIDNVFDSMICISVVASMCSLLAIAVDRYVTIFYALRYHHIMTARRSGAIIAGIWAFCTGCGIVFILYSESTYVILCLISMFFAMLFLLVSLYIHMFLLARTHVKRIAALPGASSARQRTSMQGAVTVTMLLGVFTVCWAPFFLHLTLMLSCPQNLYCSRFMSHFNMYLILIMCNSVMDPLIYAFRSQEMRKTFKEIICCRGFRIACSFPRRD

[2] = biological target: T2, Melanocyte-stimulating hormone receptor (Homo sapiens, UniProt Q01726); assay: Displacement of [125I]-NDP-alpha-MSH from human MC1R expressed in HEK293 cells after 40 mins by gamma counting method; format: cell-based
Target sequence in this assay (Q01726 whole entry): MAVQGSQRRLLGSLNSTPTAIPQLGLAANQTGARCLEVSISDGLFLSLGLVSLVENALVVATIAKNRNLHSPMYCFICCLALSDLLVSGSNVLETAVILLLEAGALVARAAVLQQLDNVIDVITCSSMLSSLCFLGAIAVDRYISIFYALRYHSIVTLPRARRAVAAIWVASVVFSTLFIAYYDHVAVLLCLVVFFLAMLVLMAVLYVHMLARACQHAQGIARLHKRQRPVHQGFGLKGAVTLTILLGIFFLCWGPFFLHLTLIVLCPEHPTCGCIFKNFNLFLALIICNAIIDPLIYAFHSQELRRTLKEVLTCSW

[3] = biological target: T2, Melanocyte-stimulating hormone receptor; assay: Agonist activity at human MC1R expressed in HEK293 cells assessed as induction of intracellular cAMP accumulation measured after 3 mins; format: functional, cell-based
Target sequence in this assay (Q01726 whole entry): as above

[4] = biological target: T3, Melanocortin receptor 3 (Homo sapiens, UniProt P41968); assay: Agonist activity at human MC3R expressed in HEK293 cells assessed as induction of intracellular cAMP accumulation after 3 mins; format: functional, cell-based
T3 sequence (P41968 whole entry): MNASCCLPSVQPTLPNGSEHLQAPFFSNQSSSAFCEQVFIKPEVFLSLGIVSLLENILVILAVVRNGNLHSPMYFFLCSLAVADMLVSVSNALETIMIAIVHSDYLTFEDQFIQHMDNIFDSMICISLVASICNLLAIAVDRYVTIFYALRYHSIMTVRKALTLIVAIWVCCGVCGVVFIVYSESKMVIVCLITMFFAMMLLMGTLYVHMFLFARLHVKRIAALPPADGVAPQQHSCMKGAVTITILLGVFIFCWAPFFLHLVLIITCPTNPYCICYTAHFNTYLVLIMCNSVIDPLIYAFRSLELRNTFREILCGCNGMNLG

[5] = biological target: T3, Melanocortin receptor 3; assay: Agonist activity at human MC3R expressed in HEK293 cells assessed as induction of intracellular cAMP accumulation at 10 uM after 3 mins relative to MT-2; format: functional, cell-based
[6] = biological target: T4, Melanocortin receptor 4 (Homo sapiens, UniProt P32245); assay: Displacement of [125I]-NDP-alpha-MSH from human MC4R expressed in HEK293 cells after 40 mins by gamma counting method; format: cell-based
T4 sequence (P32245 whole entry): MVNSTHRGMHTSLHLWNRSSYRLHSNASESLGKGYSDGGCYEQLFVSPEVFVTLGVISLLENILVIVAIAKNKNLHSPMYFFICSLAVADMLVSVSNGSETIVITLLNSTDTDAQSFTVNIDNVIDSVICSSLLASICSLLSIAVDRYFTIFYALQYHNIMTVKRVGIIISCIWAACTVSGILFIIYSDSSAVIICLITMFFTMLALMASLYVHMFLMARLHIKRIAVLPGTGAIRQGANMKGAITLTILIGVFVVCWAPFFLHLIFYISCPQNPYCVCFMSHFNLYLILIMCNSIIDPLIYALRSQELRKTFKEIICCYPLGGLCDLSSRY

[7] = biological target: T4, Melanocortin receptor 4; assay: Agonist activity at human MC4R expressed in HEK293 cells assessed as induction of intracellular cAMP accumulation after 3 mins; format: functional, cell-based
[8] = biological target: T4, Melanocortin receptor 4; assay: Agonist activity at human MC4R expressed in HEK293 cells assessed as induction of intracellular cAMP accumulation at 10 uM after 3 mins relative to MT-2; format: functional, cell-based
[9] = biological target: T1, Melanocortin receptor 5; assay: Displacement of [125I]-NDP-alpha-MSH from human MC5R expressed in HEK293 cells after 40 mins by gamma counting method; format: cell-based
[10] = biological target: T1, Melanocortin receptor 5; assay: Agonist activity at human MC5R expressed in HEK293 cells assessed as induction of intracellular cAMP accumulation at 10 uM after 3 mins relative to MT-2; format: functional, cell-based
[11] = biological target: T2, Melanocyte-stimulating hormone receptor; assay: Agonist activity at human MC1R expressed in HEK293 cells assessed as induction of intracellular cAMP accumulation at 10 uM measured after 3 mins relative to MT-2; format: functional, cell-based
Target sequence in this assay (Q01726 whole entry, looked up): as the sequence (Q01726 whole entry) above

[12] = biological target: T1, Melanocortin receptor 5; assay: Displacement of [125I]-NDP-alpha-MSH from human MC5R expressed in HEK293 cells at 10 uM after 40 mins by gamma counting method; format: cell-based
[13] = biological target: T3, Melanocortin receptor 3; assay: Displacement of [125I]-NDP-alpha-MSH from human MC3R expressed in HEK293 cells after 40 mins by gamma counting method; format: cell-based
[14] = species: Homo sapiens; assay: Selectivity ratio of IC50 for human MC1R to IC50 for human MC3R
[15] = species: Homo sapiens; assay: Selectivity ratio of IC50 for human MC5R to IC50 for human MC3R

| Compound | EC50 ([1]; hek293) | IC50 [2] [nM] | EC50 [3] [nM] | EC50 ([4]; read-out: EC50) [nM] | max activation [5] [%] | IC50 [6] [nM] | EC50 ([7]; read-out: EC50) [nM] | max activation [8] [%] | IC50 [9] [nM] | EC50 ([1]; read-out: EC50) [nM] | max activation [10] [%] | max activation [11] [%] | Activity [12] | IC50 [13] [nM] | EC50 ([4]; hek293) | EC50 ([7]; hek293) | Ratio IC50 [14] | Ratio IC50 [15] |
| --- | --- | --- | --- | --- | --- | --- | --- | --- | --- | --- | --- | --- | --- | --- | --- | --- | --- | --- |
| CC1(C)NC(=O)CC[C@@H](C(N)=O)NC(=O)[C@H](Cc2c[nH]c3ccccc23)NC(=O)[C@H](CCCNC(=N)N)NC(=O)[C@@H](Cc2ccc3ccccc3c2)NC(=O)[C@H](Cc2c[nH]cn2)NC1=O ([Aib]H[d2Nal]RWE-NH2; lactam N-6) | Not Active |  |  |  |  |  |  |  |  |  |  |  |  |  |  |  |  |  |
| CC1(C)NC(=O)C[C@@H](C(N)=O)NC(=O)[C@H](Cc2c[nH]c3ccccc23)NC(=O)[C@H](CCCNC(=N)N)NC(=O)[C@@H](Cc2ccc3ccccc3c2)NC(=O)[C@H](Cc2c[nH]cn2)NC1=O ([Aib]H[d2Nal]RWD-NH2; lactam N-6) |  | 180 | 67 | 73 | 83 | 44 | 6.7 | 100 | 165 | 18 | 24 | 100 |  |  |  |  |  |  |
| N=C(N)NCCC[C@@H]1NC(=O)[C@@H](Cc2ccccc2)NC(=O)[C@H](Cc2c[nH]cn2)NC(=O)C2(CCCC2)NC(=O)C[C@@H](C(N)=O)NC(=O)[C@H](Cc2c[nH]c3ccccc23)NC1=O ([Ac5c]H[dF]RWD-NH2; lactam N-6) | Not Active |  |  |  |  |  |  |  |  |  |  |  | inactive |  |  |  |  |  |
| N=C(N)NCCC[C@@H]1NC(=O)[C@@H](Cc2ccccc2)NC(=O)[C@H](Cc2c[nH]cn2)NC(=O)C2(CCCCC2)NC(=O)CC[C@@H](C(N)=O)NC(=O)[C@H](Cc2c[nH]c3ccccc23)NC1=O |  | 99 | 57 | 4.1 | 100 | > 1000 | 120 | 100 | 630 | 1.9 | 100 | 100 |  | 74 |  |  |  |  |
| CC1(C)NC(=O)C[C@@H](C(N)=O)NC(=O)[C@H](Cc2c[nH]c3ccccc23)NC(=O)[C@H](CCCNC(=N)N)NC(=O)[C@@H](Cc2ccccc2)NC(=O)[C@H](Cc2c[nH]cn2)NC1=O ([Aib]H[dF]RWD-NH2; lactam N-6) |  | 601 | 87 | 76 | 100 | 5.2 | 6.7 | 100 | > 1000 | 140 | 100 | 100 |  |  |  |  |  |  |
| N=C(N)NCCC[C@@H]1NC(=O)[C@@H](Cc2ccc3ccccc3c2)NC(=O)[C@H](Cc2c[nH]cn2)NC(=O)C2(CCCCC2)NC(=O)CC[C@@H](C(N)=O)NC(=O)[C@H](Cc2c[nH]c3ccccc23)NC1=O ([Ac6c]H[d2Nal]RWE-NH2; lactam N-6) | Not Active |  |  |  |  |  |  |  |  |  |  |  |  |  | Not Active | Not Active |  |  |
| N=C(N)NCCC[C@@H]1NC(=O)[C@@H](Cc2ccc3ccccc3c2)NC(=O)[C@H](Cc2c[nH]cn2)NC(=O)C2(CCCC2)NC(=O)C[C@@H](C(N)=O)NC(=O)[C@H](Cc2c[nH]c3ccccc23)NC1=O |  | 290 | 14 | 1.9 | 42 | 73 | 110 | 67 | 160 | 96 | 100 | 100 |  | 16 |  |  |  |  |
| N=C(N)NCCC[C@@H]1NC(=O)[C@@H](Cc2ccccc2)NC(=O)[C@H](Cc2c[nH]cn2)NC(=O)C2(CCCC2)NC(=O)CC[C@@H](C(N)=O)NC(=O)[C@H](Cc2c[nH]c3ccccc23)NC1=O ([Ac5c]H[dF]RWE-NH2; lactam N-6) | Not Active | 93 |  |  | 100 | > 1000 | 1000 | 100 |  |  | 0 | 100 | inactive | 59 |  |  |  |  |
| N=C(N)NCCC[C@@H]1NC(=O)[C@@H](Cc2ccccc2)NC(=O)[C@H](Cc2c[nH]cn2)NC(=O)C2(CCCCC2)NC(=O)C[C@@H](C(N)=O)NC(=O)[C@H](Cc2c[nH]c3ccccc23)NC1=O ([Ac6c]H[dF]RWD-NH2; lactam N-6) | Not Active |  |  |  |  |  |  |  |  |  |  |  |  |  |  |  |  |  |
| N=C(N)NCCC[C@@H]1NC(=O)[C@@H](Cc2ccc3ccccc3c2)NC(=O)[C@H](Cc2c[nH]cn2)NC(=O)C2(CCC2)NC(=O)C[C@@H](C(N)=O)NC(=O)[C@H](Cc2c[nH]c3ccccc23)NC1=O |  | 112 | 48 | 3.2 | 50 | 320 | 270 | 70 | > 1000 | 560 | 100 | 100 |  | 5.1 |  |  |  |  |
| N=C(N)NCCC[C@@H]1NC(=O)[C@@H](Cc2ccc3ccccc3c2)NC(=O)[C@H](Cc2c[nH]cn2)NC(=O)C2(CCCCC2)NC(=O)C[C@@H](C(N)=O)NC(=O)[C@H](Cc2c[nH]c3ccccc23)NC1=O |  | 140 | 16 | 76 | 60 | 81 | 3.2 | 67 | > 1000 | 170 | 100 | 100 |  | 3.9 |  |  |  |  |
| N=C(N)NCCC[C@@H]1NC(=O)[C@@H](Cc2ccccc2)NC(=O)[C@H](Cc2c[nH]cn2)NC(=O)C2(CCC2)NC(=O)C[C@@H](C(N)=O)NC(=O)[C@H](Cc2c[nH]c3ccccc23)NC1=O | Not Active | > 1000 | 60 | 276 | 100 | > 1000 | 720 | 43 | > 1000 |  | 0 | 100 |  | > 1000 |  |  |  |  |
| N=C(N)NCCC[C@@H]1NC(=O)[C@@H](Cc2ccc3ccccc3c2)NC(=O)[C@H](Cc2c[nH]cn2)NC(=O)C2(CCCC2)NC(=O)CC[C@@H](C(N)=O)NC(=O)[C@H](Cc2c[nH]c3ccccc23)NC1=O ([Ac5c]H[d2Nal]RWE-NH2; lactam N-6) | Not Active | 43 | 108 |  | 82 | 100 | 130 | 74 | > 1000 |  | 0 | 100 |  |  |  |  |  |  |
| N=C(N)NCCC[C@@H]1NC(=O)[C@@H](Cc2ccc3ccccc3c2)NC(=O)[C@H](Cc2c[nH]cn2)NC(=O)C2(CCC2)NC(=O)CC[C@@H](C(N)=O)NC(=O)[C@H](Cc2c[nH]c3ccccc23)NC1=O ([Ac4c]H[d2Nal]RWE-NH2; lactam N-6) | Not Active |  |  |  |  |  |  |  |  |  |  |  |  |  | Not Active | Not Active |  |  |
| N=C(N)NCCC[C@@H]1NC(=O)[C@@H](Cc2ccccc2)NC(=O)[C@H](Cc2c[nH]cn2)NC(=O)C2(CCC2)NC(=O)CC[C@@H](C(N)=O)NC(=O)[C@H](Cc2c[nH]c3ccccc23)NC1=O ([Ac4c]H[dF]RWE-NH2; lactam N-6) |  | 55 | 25 |  | 100 | > 1000 | 150 | 75 | 380 | 2 | 100 | 100 |  | 55 |  |  | 7 | 1 |
